Test results from patent publication US8394952B2 (Vertex Pharmaceuticals Incorporated, priority 2006, dated 2013).

Target: Plk1 (Homo sapiens, UniProt P53350)
Assay: biochemical

Sequence of Plk1 (P53350 20-338): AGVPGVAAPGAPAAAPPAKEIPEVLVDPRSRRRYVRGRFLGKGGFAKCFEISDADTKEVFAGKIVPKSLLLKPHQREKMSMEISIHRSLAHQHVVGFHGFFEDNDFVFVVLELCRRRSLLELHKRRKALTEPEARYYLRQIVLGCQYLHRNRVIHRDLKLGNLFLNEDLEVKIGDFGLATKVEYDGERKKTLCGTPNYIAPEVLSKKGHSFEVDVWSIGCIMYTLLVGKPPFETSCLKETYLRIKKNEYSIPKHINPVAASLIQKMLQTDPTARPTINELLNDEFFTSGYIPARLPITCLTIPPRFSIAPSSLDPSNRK

Row | Ki [nM] | SMILES
1 | 10 to 100 | CN1C(=O)C(C)(C)CN(C2CCCC2)c2nc(Nc3cccc4cn[nH]c34)ncc21 [Compound I-89, 2-(1H-indazo-7-ylamino)-9-cyclopentyl-8,9-dihydro-5,7,7-trimethyl-5H-pyrimido[4,5-b][1,4]diazepin-6(7H)-one]
2 | < 10 | COc1cc(C(=O)Nc2ncc(C)s2)ccc1Nc1ncc2c(n1)N(C1CCCC1)CC(C)(C)C(=O)N2C [Compound I-236, 4-(9-cyclopentyl-5,7,7-trimethyl-6-oxo-6,7,8,9-tetrahydro-5H-pyrimido[4,5-b][1,4]diazepin-2-ylamino)-3-methoxy-N-(5-methylthiazol-2-yl)benzamide]
3 | < 10 | COc1cc(C(=O)NCCN2CC[C@H](F)C2)ccc1Nc1ncc2c(n1)N(C1CCCC1)CC(C)(C)C(=O)N2C [Compound I-37, 4-(9-cyclopentyl-6,7,8,9-tetrahydro-5,7,7-trimethyl-6-oxo-5H-pyrimido[4,5-b][1,4]diazepin-2-ylamino)-N-(2-((S)-3-fluoropyrrolidin-1-yl)ethyl)-3-methoxybenzamide]
4 | 10 to 100 | COc1cc(C(=O)N2CCNCC2)ccc1Nc1ncc2c(n1)N(C1CCCC1)CCC(=O)N2C [Compound I-8, 4-(9-cyclopentyl-6,7,8,9-tetrahydro-5-methyl-6-oxo-5H-pyrimido[4,5-b][1,4]diazepin-2-ylamino)-3-methoxyphenyl(piperazin-1-yl)methanone]
5 | < 10 | COc1cc(C(=O)NCC#N)ccc1Nc1ncc2c(n1)N(C1CCCC1)CC(C)(C)C(=O)N2C [Compound I-233, N-(cyanomethyl)-4-(9-cyclopentyl-5,7,7-trimethyl-6-oxo-6,7,8,9-tetrahydro-5H-pyrimido[4,5-b][1,4]diazepin-2-ylamino)-3-methoxybenzamide]
6 | 10 to 100 | CNC(=O)c1ccc(Nc2ncc3c(n2)N(C2CCCC2)CCc2nncn2-3)c(OC)c1 [Compound I-42, 4-(6-Cyclopentyl-5,6-dihydro-4H-2,3,6,7,9,10b-hexaaza-benzo[e]azulen-8-ylamino)-3-methoxy-N-methylbenzamide]
7 | < 10 | COc1cc(C(=O)NN2CCCC2)ccc1Nc1ncc2c(n1)N(C1CCCC1)CC1(CC1)C(=O)N2C [Compound I-253, 4-(9′-cyclopentyl-5′-methyl-6′-oxo-5′,6′,8′,9′-tetrahydrospiro[cyclopropane-1,7′-pyrimido[4,5-b][1,4]diazepine]-2′-ylamino)-3-methoxy-N-(pyrrolidin-1-yl)benzamide]
8 | 10 to 100 | CN1C(=O)C(C)(C)CN(C2CCCC2)c2nc(Nc3ccc(CN4CCOCC4)cc3)ncc21 [Compound I-86]
9 | < 10 | COCCCNC(=O)c1ccc(Nc2ncc3c(n2)N(C2CCCC2)CC(C)(C)C(=O)N3C)c(OC)c1 [Compound I-198, 4-(9-cyclopentyl-5,7,7-trimethyl-6-oxo-6,7,8,9-tetrahydro-5H-pyrimido[4,5-b][1,4]diazepin-2-ylamino)-3-methoxy-N-(3-methoxypropyl)benzamide]
10 | < 10 | COc1cc(C(=O)NC2CCN(C(=O)OC(C)(C)C)CC2)ccc1Nc1ncc2c(n1)N(C1CCCC1)CC(C)(C)C(=O)N2C [Compound I-95]
11 | < 10 | COc1cc(C(=O)NC[C@@H]2CCCC[C@@H]2O)ccc1Nc1ncc2c(n1)N(C1CCCC1)CC1(CC1)C(=O)N2C [Compound I-252, 4-(9′-cyclopentyl-5′-methyl-6′-oxo-5′,6′,8′,9′-tetrahydrospiro[cyclopropane-1,7′-pyrimido[4,5-b][1,4]diazepine]-2′-ylamino)-N-(((1S,2S)-2-hydroxycyclohexyl)methyl)-3-methoxybenzamide]
12 | 10 to 100 | CN1C(=O)C(C)(C)CN(C2CCCC2)c2nc(Nc3ccc4c(cnn4C)c3)ncc21 [Compound I-110, 2-(1-methyl-1H-indazol-5-ylamino)-9-cyclopentyl-8,9-dihydro-5,7,7-trimethyl-5H-pyrimido[4,5-b][1,4]diazepin-6(7H)-one]
13 | < 10 | CC[C@H]1CN(C2CCCC2)c2nc(Nc3ccc(C(=O)NC4CCC4)cc3OC)ncc2N(C)C1=O [Compound I-119, 4-((S)-9-cyclopentyl-7-ethyl-6,7,8,9-tetrahydro-5-methyl-6-oxo-5H-pyrimido[4,5-b][1,4]diazepin-2-ylamino)-N-cyclobutyl-3-methoxybenzamide]
14 | < 10 | COc1cc(C(=O)NC[C@@H]2CC[C@@H](O)C2)ccc1Nc1ncc2c(n1)N(C1CCCC1)CC(C)(C)C(=O)N2C [Compound I-259, 4-(9-cyclopentyl-5,7,7-trimethyl-6-oxo-6,7,8,9-tetrahydro-5H-pyrimido[4,5-b][1,4]diazepin-2-ylamino)-N-((1R,3R)-3-(hydroxycyclopentyl)methyl)-3-methoxybenzamide]
15 | < 10 | COc1cc(C(=O)NCC(F)(F)F)ccc1Nc1ncc2c(n1)N(C1CCCC1)CC(C)(C)C(=O)N2C [Compound I-105]
16 | 10 to 100 | CN1C(=O)C(C)(C)CN(C2CCCC2)c2nc(Nc3cccc(NS(C)(=O)=O)c3)ncc21 [Compound I-150, N-[3-(9-cyclopentyl-5,7,7-trimethyl-6-oxo-6,7,8,9-tetrahydro-5H-pyrimido[4,5-b][1,4]diazepin-2-ylamino)-phenyl]-methanesulfonamide]
17 | < 10 | CCC1CN(C2CCCC2)c2nc(Nc3ccc(C(=O)NC)cc3OC)ncc2N(C)C1=O (stereo not shown) [Compound I-190, 4-(9-cyclopentyl-7-ethyl-5-methyl-6-oxo-6,7,8,9-tetrahydro-5H-pyrimido[4,5-b][1,4]diazepin-2-ylamino)-3-methoxy-N-methylbenzamide]
18 | < 10 | COc1cc(C(=O)NC2CC2)ccc1Nc1ncc2c(n1)N(C1CCCC1)CC1(CC1)C(=O)N2C [Compound I-178, 4-(9′-cyclopentyl-5′-methyl-6′-oxo-5′,6′,8′,9′-tetrahydrospiro[cyclopropane-1,7′-pyrimido[4,5-b][1,4]diazepine]-2′-ylamino)-N-cyclopropyl-3-methoxybenzamide]
19 | 10 to 100 | CN1C(=O)C(C)(C)CN(C2CCCC2)c2nc(Nc3cccc(C(=O)N4CC(F)(C5CC5)C4)c3)ncc21 [Compound I-152, 9-Cyclopentyl-2-[3-(3-cyclopropyl-3-fluoro-azetidine-1-carbonyl)-phenylamino]-5,7,7-trimethyl-5,7,8,9-tetrahydro-pyrimido[4,5-b][1,4]diazepin-6-one]
20 | < 10 | COc1cc(C(=O)N2CCOCC2)ccc1Nc1ncc2c(n1)N(C1CCCC1)CC(C)(C)C(=O)N2C [Compound I-199, 9-cyclopentyl-2-(2-methoxy-4-(morpholine-4-carbonyl)phenylamino)-5,7,7-trimethyl-8,9-dihydro-5H-pyrimido[4,5-b][1,4]diazepin-6(7H)-one]
21 | 10 to 100 | CNC(=O)c1ccc(Nc2ncc3c(n2)N(c2ccccc2)CC(C)(C)C(=O)N3C)c(OC)c1 [Compound I-40, 4-(6,7,8,9-tetrahydro-5,7,7-trimethyl-6-oxo-9-phenyl-5H-pyrimido[4,5-b][1,4]diazepin-2-ylamino)-3-methoxy-N-methylbenzamide]
22 | 10 to 100 | COc1ccccc1Nc1ncc2c(n1)N(C1CCCC1)CC(C)(C)C(=O)N2C [Compound I-102, 2-(2-methoxyphenylamino)-9-cyclopentyl-8,9-dihydro-5,7,7-trimethyl-5H-pyrimido[4,5-b][1,4]diazepin-6(7H)-one]
